Results taken from ChEMBL document CHEMBL1128469, “Synthesis and biochemical evaluation of adenosylspermidine, a nucleoside-polyamine adduct inhibitor of spermidine synthase” (J Med Chem, 1995).

Key:
[1] = target: Spermine synthase (Rattus norvegicus); assay: Inhibition of Spermidine aminopropyltransferase (SAPT) in rat liver.
Spermidine synthase = target: T1, Spermidine synthase (Rattus norvegicus, UniProt Q99MI5); assay: Inhibition of Putrescine aminopropyltransferase (PAPT) in rat liver.
T1 sequence (Q99MI5 whole entry): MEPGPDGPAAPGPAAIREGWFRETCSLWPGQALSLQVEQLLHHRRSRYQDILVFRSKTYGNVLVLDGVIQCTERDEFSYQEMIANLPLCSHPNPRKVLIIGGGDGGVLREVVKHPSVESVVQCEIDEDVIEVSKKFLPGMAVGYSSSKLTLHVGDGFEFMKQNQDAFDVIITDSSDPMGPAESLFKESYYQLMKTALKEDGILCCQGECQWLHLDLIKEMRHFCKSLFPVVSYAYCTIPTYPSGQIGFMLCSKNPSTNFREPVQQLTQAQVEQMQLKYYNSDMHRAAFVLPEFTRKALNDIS

[2] = target: T2, S-adenosylmethionine decarboxylase proenzyme (Homo sapiens, UniProt P17707); assay: Inhibitory activity against S-adenosyl-L-methionine decarboxylase was determined; NI means No inhibition
T2 sequence (P17707 whole entry): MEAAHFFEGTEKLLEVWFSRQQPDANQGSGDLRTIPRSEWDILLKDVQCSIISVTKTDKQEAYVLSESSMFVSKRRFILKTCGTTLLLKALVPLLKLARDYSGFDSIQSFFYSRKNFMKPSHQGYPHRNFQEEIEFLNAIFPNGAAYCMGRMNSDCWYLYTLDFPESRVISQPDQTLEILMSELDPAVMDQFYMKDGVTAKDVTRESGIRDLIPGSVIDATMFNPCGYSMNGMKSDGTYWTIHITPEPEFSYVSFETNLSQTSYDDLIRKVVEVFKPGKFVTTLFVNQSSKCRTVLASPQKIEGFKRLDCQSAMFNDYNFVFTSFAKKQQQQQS

Ornithine decarboxylase = target: T3, Ornithine decarboxylase (Rattus norvegicus, UniProt P09057); assay: Inhibition of Ornithine decarboxylase in rat liver; Not inhibited
T3 sequence (P09057 whole entry): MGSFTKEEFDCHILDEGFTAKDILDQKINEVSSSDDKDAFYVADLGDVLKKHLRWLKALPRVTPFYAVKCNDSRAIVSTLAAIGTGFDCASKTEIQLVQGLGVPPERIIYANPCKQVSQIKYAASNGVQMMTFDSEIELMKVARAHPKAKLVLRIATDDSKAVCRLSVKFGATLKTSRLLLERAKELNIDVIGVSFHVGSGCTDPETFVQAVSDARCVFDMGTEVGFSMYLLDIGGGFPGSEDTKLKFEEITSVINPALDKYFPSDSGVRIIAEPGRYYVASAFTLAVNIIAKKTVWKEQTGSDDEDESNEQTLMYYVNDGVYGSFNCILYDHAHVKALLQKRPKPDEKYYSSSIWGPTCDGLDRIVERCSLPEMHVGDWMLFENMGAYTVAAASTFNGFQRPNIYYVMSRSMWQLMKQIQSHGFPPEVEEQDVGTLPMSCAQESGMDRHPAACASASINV

Row | IC50 [1] [nM] | IC50 (Spermidine synthase) [nM] | IC50 [2] | IC50 (Ornithine decarboxylase) | Structure (SMILES)
1 | 50 | > 10000 | – | – | NCCCNCCCCCC(CCN)SC[C@H]1OC(n2cnc3c(N)ncnc32)[C@H](O)[C@@H]1O (some centres undefined)
2 | – | – | Not Active | No inhibition | NCCCCNC(CCN)CC[C@H]1OC(n2cnc3c(N)ncnc32)[C@H](O)[C@@H]1O (some centres undefined)
